Laboratory results published in PMC7306133 (Diabetes, 2020).
pIC50: −log10 of the molar value. Where a SMILES comes first, the peptide text is derived from it. Where no end group is shown, it is not given here.

How the values were obtained:
[1] = target: HLA-DRB1*04:01 (DR0401) protein (Homo sapiens, UniProt P01903+P01911, A100K/A169T/F76Y/I96L/K127E/L162R/M171V/N62H/P40V/Q125Y/R42H/S133A/S149N/S66Y/V115G/V209L/W38E); assay: DR0401 peptide binding competition assay
[2] = tested on: HIP-specific T-cell clones; assay: Proliferation of HIP-specific T-cell clones in response to human islet fractions; assay type: cell-based; conditions: label = specificity of the clone; compared with the unpulsed control condition
[3] = tested on: CD4+ T cells in peripheral blood of subjects with T1D; assay: Ex vivo tetramer analysis of T-cell frequency; assay type: cell-based, human; conditions: DR0401 tetramers, ex vivo enrichment

Compound | pIC50 [1] | Proliferation of the HIP-reactive clone in response to human islets (in words) [2] | Average frequency of HIP-reactive T cells [3]
VCGERGFFEELVARSE [HIP-4.1] | 5.55 | – | –
QPLALEGSALSSQHQA [HIP-4.40] | 5.62 | – | –
CSLYQLENSVPHFSDE [HIP-4.39] | 6.62 | – | –
SLQKRGIVEELVARSE [HIP-4.18] | 5.74 | – | –
CC[C@H](C)[C@H](N)C(=O)N[C@@H](CS)C(=O)N[C@@H](CO)C(=O)N[C@@H](CC(C)C)C(=O)N[C@@H](Cc1ccc(O)cc1)C(=O)N[C@@H](CCC(N)=O)C(=O)N[C@@H](CC(C)C)C(=O)N[C@@H](CCC(=O)O)C(=O)N[C@@H](Cc1ccccc1)C(=O)N[C@H](C(=O)N[C@@H](CC(N)=O)C(=O)N[C@@H](CCC(N)=O)C(=O)N[C@@H](Cc1c[nH]cn1)C(=O)N[C@@H](CC(C)C)C(=O)N[C@@H](CS)C(=O)NCC(=O)O)C(C)C [HIP-4.4] (H-ICSLYQLEFVNQHLCG-OH; N-terminus and C-terminus assumed) | – | not above the unpulsed control condition | 8 cells per million CD4+ T cells
HLVEALYLEELVARSE [HIP-4.2] | 6.36 | – | –
